A word on the EC50: it is the concentration needed to bring the measured effect to its halfway point.

The assay deals with T1, HA-S170A + myc-F801A (S170A:F801A heterodimer) (Rattus norvegicus, UniProt P48442, F801A/S170A).
T1 construct: mGluR5 signal peptide (N); expressed in transfected cells; host or cells: HEK293T
T1 sequence (P48442 20-1079 S170A): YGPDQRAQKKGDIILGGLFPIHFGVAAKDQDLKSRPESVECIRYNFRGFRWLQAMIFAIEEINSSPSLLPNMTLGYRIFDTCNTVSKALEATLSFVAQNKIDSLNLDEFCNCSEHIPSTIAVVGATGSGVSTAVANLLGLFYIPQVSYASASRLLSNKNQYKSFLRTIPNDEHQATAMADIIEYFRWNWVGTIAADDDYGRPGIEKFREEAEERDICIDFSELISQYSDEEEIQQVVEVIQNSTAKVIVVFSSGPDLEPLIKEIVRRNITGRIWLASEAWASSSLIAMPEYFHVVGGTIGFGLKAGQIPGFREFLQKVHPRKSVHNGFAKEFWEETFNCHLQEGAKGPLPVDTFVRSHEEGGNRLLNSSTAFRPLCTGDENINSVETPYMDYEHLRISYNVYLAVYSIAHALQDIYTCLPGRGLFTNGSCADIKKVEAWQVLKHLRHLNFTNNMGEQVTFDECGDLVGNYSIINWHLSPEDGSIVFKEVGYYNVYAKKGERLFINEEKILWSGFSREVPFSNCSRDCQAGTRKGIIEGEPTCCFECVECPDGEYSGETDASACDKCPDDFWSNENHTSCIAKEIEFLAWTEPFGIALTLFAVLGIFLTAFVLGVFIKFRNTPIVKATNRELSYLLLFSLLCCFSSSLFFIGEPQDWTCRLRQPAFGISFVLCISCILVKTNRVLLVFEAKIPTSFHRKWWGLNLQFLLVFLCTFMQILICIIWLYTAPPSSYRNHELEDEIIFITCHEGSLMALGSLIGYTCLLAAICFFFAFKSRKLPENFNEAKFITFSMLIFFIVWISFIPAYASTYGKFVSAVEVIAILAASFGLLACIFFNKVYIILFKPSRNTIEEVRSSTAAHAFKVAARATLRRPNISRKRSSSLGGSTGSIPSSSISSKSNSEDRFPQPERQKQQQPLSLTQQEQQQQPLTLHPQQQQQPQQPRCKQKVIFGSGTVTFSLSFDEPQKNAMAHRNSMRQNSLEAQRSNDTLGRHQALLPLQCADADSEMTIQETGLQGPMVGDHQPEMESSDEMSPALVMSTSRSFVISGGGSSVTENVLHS
T1 sequence (P48442 20-1079 F801A): T1 sequence (P48442 20-1079 S170A) with A151S, F782A
Nature of the assay: IP-One trans-activation assay, co-expression 1:1 in HEK293T. In kind it is cell-based. How it is done: Human embryonic kidney (HEK) 293T cells were cultured in DMEM supplemented with 10% dFBS and 1% P/S at 37 °C and 5% CO2. 48 h prior to assay, transient transfection was performed using Lipofectamine 2000 as the transfection reagent. White opaque 96-well culture plates (PerkinElmer, Waltham, MA, USA) were used for the ELISA and the TR-FRET dimerization assay, while clear tissue culture treated 96-well plates (Corning, Corning, NY, USA) were used for the IP-One assay. Both plate types were coated with poly-D-lysine before addition of cells and transfection mix. 0.25 μl/well of Lipofectamine 2000 were diluted in 25 μl/well of Opti-MEM and incubated at room temperature (RT) for 5 min. 0.03 μg/well of DNA was diluted in 25 μl/well of Opti-MEM, and subsequently mixed with the Lipofectamine 2000 dilution and incubated 20 min at RT before addition to the plates. Cell suspensions of 170.000 HEK293T cells/mL were prepared in complete growth medium and 100 μl/well (17.000 cells/well) was added to the plates, which were incubated for 48 h at 37 °C and 5% CO2 before performing assays.
Functional activity was measured using the IP-One assay, which is an IP1 accumulation assay. For agonist testing, ligands were prepared in final concentrations in ligand buffer (HBSS, 20 mM HEPES, pH 7.4 supplemented with 20 mM LiCl). Cells were washed once with 100 μl/well of assay buffer (HBSS, 20 mM HEPES, pH 7.4) and 50 μl/well of agonist solution was added after which plates were incubated at 37 °C for 30 min. Subsequently, ligand solutions were removed and cells were washed with 100 μl/well of assay buffer. Cell lysis was performed by addition of 30 μl/well of IP-One Conjugate & Lysis Buffer (Cisbio Bioassays, Codolet, France) and plates were incubated at RT for 30 min. Afterwards, 30 μl/well of assay buffer was added to dilute the cell lysate. 10 μl/well of cell lysate was transferred from the 96-well plate to a 384-well Optiplate and 10 μl/well of detection solution (Assay buffer + 2.5% of anti-IP1 antibody cryptate Terbium conjugate + 2.5% IP1-d2 conjugate (Cisbio Bioassays, Codolet, France)) was also added. The 384-well plate was incubated for 1 h at RT in dark before being measured on an EnVision plate reader (PerkinElmer, Waltham, MA, USA). Upon excitation at 340 nm, emission at 615 nm and 665 nm was measured, and the FRET ratio (665 nm/615 nm) was converted to IP1 concentrations by interpolating values from an IP1 standard curve generated from a provided IP1 calibrator (Cisbio Bioassays, Codolet, France). When testing allosteric modulators, cells were pre-incubated for 30 min at 37 °C with 50 μl/well of ligand buffer supplemented with allosteric modulator and a final concentration of 1% DMSO. Afterwards, the buffer solution was removed and 50 μl/well of agonist solution in ligand buffer supplemented with allosteric modulator and a final concentration of 1% DMSO was added. Plates were incubated for 30 min at 37 °C followed by one wash in 100 μl/well of assay buffer. Cell lysis and detection was performed as described above.

Setting [1] is: HA-S170A + myc-F801A trans-activation response, Ca^2+ alone.

The structures appear in SMILES notation. Numbering of substitutions follows the chain as printed. Several values for one entry are separate records, joined by “and”; a condition that tells them apart may be missing. Equal entries are not always repeated.

For `CC(C)(Cc1ccc2ccccc2c1)NC[C@@H](O)COc1cccc(Cl)c1C#N.Cl` [NPS 2143, NPS 2143 hydrochloride], where the note is “S170A:F801A heterodimer, highest tested NPS 2143 concentration (5 μM)”, the “inhibition of Ca^2+-mediated response” value is “full inhibition”.

As to `[Ca+2]` [Ca^2+], under setting [1], the EC50 stood at 12.7 mM, the “Hill coefficient ± S.E.M.” value is on record as 2.69 ± 0.19 and the “pEC50 ± S.E.M.” value came out at 1.90 ± 0.03. In addition, under “HA-S170A + myc-F801A, maximum trans-activation response normalized to maximum response of WT CaSR”, the “Max ± S.E.M.” value was 30% and 30 ± 1.9%.

Turning to `COc1cccc([C@@H](C)NCCCc2ccccc2Cl)c1.Cl` [NPS R-568, NPS R-568 hydrochloride], the “potentiation of Ca^2+-mediated response” value (S170A:F801A heterodimer, 0.05, 0.1 and 1 μM NPS R-568) was “concentration-dependent potentiation”.

(Values after PMC5394417, “Investigating the molecular mechanism of positive and negative allosteric modulators in the calcium-sensing receptor dimer” (Scientific Reports, 2017).)
